In paper doi:10.1101/2025.11.04.686469, “Discovery of Host-Directed Small Molecules with Broad Anti-Leishmanial Efficacy” (bioRxiv, 2025):
≈ marks a conversion by molar mass, not a printed value. Where two headings read alike, the source gives them in different places.

Key:
[1] = test system: intracellular L. donovani amastigotes; assay: Luminescent-based evaluation of intracellular anti-leishmanial activity in THP-1 macrophages; assay type: cell-based, Leishmania donovani
Procedure, shortened: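 PMA-differentiated THP-1 macrophages (150 nM, 72 h) were infected 18 h with firefly luciferase-expressing L. donovani LV82 promastigotes, then washed. Infected cells were treated with compounds at 0.1-10 μM for 72 h. Surviving intracellular amastigotes were quantified by firefly luciferase luminescence after cell lysis and 10 min substrate incubation at room temperature.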

[2] = test system: extracellular L. donovani promastigotes; assay: Effect of compounds on promastigote viability (resazurin assay); assay type: cell-based, Leishmania donovani; conditions: 72-hour incubation, resazurin assay; read-out: Extracellular L. donovani promastigotes MIC50
Method: The effect of compounds on extracellular promastigotes was evaluated using a resazurin-based assay as described previously. In short, late log phase Leishmania promastigotes were seeded in a 96 well plate at 1 x 10^5 parasites per well and treated with drugs (0.5 – 200 μM) for 72 hours at 25°C. Ten microliters of resazurin (0.02% w/v) were added to the treated parasites to achieve a final concentration of 0.002% w/v and incubated for 24 hours. Viability of the promastigotes was assessed by fluorescence (excitation 544 nm, emission 590 nm, SpectraMax M2, Molecular Devices).

[3] = test system: intracellular L. donovani amastigotes; assay: Image-based (Giemsa staining) evaluation of intracellular anti-leishmanial activity in bone marrow derived macrophages; assay type: cell-based, Leishmania donovani; conditions: Giemsa staining, 72-hour incubation, read-out: Intracellular L. donovani amastigotes IC50
Method: Bone marrow derived macrophages (BMDMs) were isolated from BALB/c mice and cultured as previously described. […] Completely differentiated BMDMs are obtained after 7 days of culture with media change every 2 days. Harvested cells were seeded onto 10 mm glass cover slips at 5 x 10^5 cells/ well of a 24 well plate in DMEM media (without LCM) and allowed to adhere overnight. […] After infection, cells were washed three times with fresh media to remove extracellular promastigotes and treated with compounds for a 72-hour incubation. BMDM cells were then washed with phosphate buffered saline, fixed with ice-cold methanol, and stained with Giemsa (5% v/v in water). The cover slips with stained cells are mounted onto glass slides and imaged on EVOS XL (100X, Thermo Fisher Scientific). Leishmania amastigotes per 100 macrophages were determined in a blinded manner.

THP-1 macrophages = assay: Effect of compounds on host cell viability (MTT); assay type: cell-based
Procedure, shortened: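 THP-1 cells were differentiated with 150 nM PMA for 72 h, then exposed to compounds at 1–50 μM for 24 h; selected compounds were also run at 1–300 μM for 72 h. MTT at 0.5 mg/mL was added for 2 h at 37 °C, and formazan absorbance was read at 560 nm minus 670 nm.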

[4] = THP1 macrophages, luminescence assay, 72 hours of treatment, read-out: Intracellular L. donovani amastigotes Lum IC50
[5] = THP-1 macrophages, 72-hour incubation, MTT assay, read-out: 72 hr viability of THP-1 macrophages LC50
[6] = read-out: 24 hr viability of THP-1 macrophages 24h LC50, THP-1 macrophages, 24-hour incubation, MTT assay
[7] = intracellular Leishmania donovani in THP1 macrophages, luminescence assay (Supplemental Table 2), read-out: Lum IC50
[8] = read-out: 24h LC50, THP1 macrophages, 24-hour incubation, MTT assay (Supplemental Table 2)

SMILES | IC50 [1, 7] [µM] | CC50 (THP-1 macrophages; [8]) [µM] | also measured
FC(F)(F)c1ccc(-c2ccc(-c3cc(C(F)(F)F)nn3-c3ccc(NC4CCNC4)cc3)cc2)cc1 (stereo not shown) [Compound 25] |  |  | IC50 [1, 4]: 0.7 µM; MIC50 [2]: 2.1 µM (≈ 1.08 µg/mL); IC50 [3]: 2.5 µM; CC50 (THP-1 macrophages; [5]): 6.3 µM; CC50 (THP-1 macrophages; [6]): 28.9 µM
Oc1ccc(CNC2CCN(c3ccc(-n4nc(C(F)(F)F)cc4C4CCCCC4)cc3)CC2)cc1 [Compound 319] |  |  | IC50 [1, 4]: 0.8 µM; MIC50 [2]: 0.8 µM (≈ 0.399 µg/mL); IC50 [3]: 3.4 µM; CC50 (THP-1 macrophages; [5]): 7.2 µM; CC50 (THP-1 macrophages; [6]): 6.4 µM
O=C(Nc1ccc(-n2cc(C(F)(F)F)nc2-c2ccc(-c3ccccc3)cc2)cc1)C1CCN(Cc2ccccc2)C1 (stereo not shown) [Compound 86] |  |  | IC50 [1, 4]: 1.4 µM; MIC50 [2]: 3.2 µM (≈ 1.81 µg/mL); IC50 [3]: 0.6 µM; CC50 (THP-1 macrophages; [5]): 8.2 µM; CC50 (THP-1 macrophages; [6]): 21.9 µM
Nc1ccc(CNC2CCN(c3ccc(-n4nc(C(F)(F)F)cc4-c4ccc(-c5ccc(C(F)(F)F)cc5)cc4)cc3)C2)cc1 (stereo not shown) [Compound 23] |  |  | IC50 [1, 4]: 0.4 µM; MIC50 [2]: 4.0 µM (≈ 2.49 µg/mL); IC50 [3]: 0.9 µM; CC50 (THP-1 macrophages; [5]): 6.9 µM; CC50 (THP-1 macrophages; [6]): 5.8 µM
CC(C)(C)C#Cc1ccc(-c2cc(C(F)(F)F)nn2-c2ccc(N3CCNCC3)cc2)cc1.Cl [Compound 44] |  |  | IC50 [1, 4]: 0.9 µM; MIC50 [2]: 1.9 µM; IC50 [3]: 1 µM; CC50 (THP-1 macrophages; [5]): 14.5 µM; CC50 (THP-1 macrophages; [6]): 7.4 µM
O=C(Nc1ccc(-n2cc(C(F)(F)F)nc2-c2ccc(-c3ccccc3)cc2)cc1)c1ccccc1 [Compound 88] | > 10 | > 50 | 
O=[N+]([O-])c1cccc(-n2nc(C(F)(F)F)cc2-c2ccc(-c3ccc(C(F)(F)F)cc3)cc2)c1 [Compound 189] | > 10 | > 50 | 
CC(C)(C)OC(=O)NC1CCN(c2ccc(-n3nc(C(F)(F)F)cc3C(C)(C)C)cc2)C1 (stereo not shown) [Compound 202] | 8.5 | > 50 | 
Oc1ccc(CN2CCC(Nc3ccc(-n4nc(C(F)(F)F)cc4C4CCCCC4)cc3)CC2)cc1 [Compound 392] | 4.7 | 25.9 | 
Nc1ccc(-n2cnc3ccccc32)cc1 [Compound 147] | > 10 | > 50 | 
FC(F)(F)c1ccc(-c2ccc(-c3cc(C(F)(F)F)nn3-c3ccc(N4CC(NC5CCCC5)C4)cc3)cc2)cc1 [Compound 55] | 8.5 | 29.7 | 
O=[N+]([O-])c1ccc(-n2cc(C(F)(F)F)nc2-c2ccc(Br)cc2)cc1 [Compound 192] | > 10 | > 50 | 
CC(C)c1cc(C(F)(F)F)nn1-c1ccc(NC2CCNC2)cc1 (stereo not shown) [Compound 315] | 3.3 | 25.1 | 
O=C(Nc1ccc(-n2cc(C(F)(F)F)nc2-c2ccc(-c3ccccc3)cc2)cc1)C1CCCN1Cc1ccccc1 (stereo not shown) [Compound 85] | > 10 | > 50 | 
Nc1ccc(-n2nc(C(F)(F)F)cc2-c2ccc(-c3ccc(S(F)(F)(F)(F)F)cc3)cc2)cc1 [Compound 104] | > 10 | > 50 | 
FC(F)(F)c1ccc(-c2ccc(-c3cc(C(F)(F)F)nn3-c3ccc(N4CCC(NC5CCCCCC5)C4)cc3)cc2)cc1 (stereo not shown) [Compound 69] | 5.5 | 12.4 | 
CC(C)(C)c1ccc(-c2nc(C(F)(F)F)cn2-c2ccc(N)cc2)cc1 [Compound 149] | 9.1 | 28.8 | 
O=C1CN(c2ccc(-n3cc(C(F)(F)F)nc3-c3ccc(C(F)(F)F)cc3)cc2)CCN1 [Compound 332] | 8 | 31.2 | 
FC(F)(F)c1ccc(-c2ccc(-c3cc(C(F)(F)F)nn3-c3cccc(Br)c3)cc2)cc1 [Compound 190] | > 10 | > 50 | 
FC(F)(F)c1cn(-c2ccc(Br)cc2)c(-c2ccc(-c3ccccc3)cc2)n1 [Compound 81] | > 10 | > 50 | 
O=S(=O)(c1ccc(-n2cc(C(F)(F)F)nc2-c2ccc(-c3ccc(C(F)(F)F)cc3)cc2)cc1)C(F)(F)F [Compound 244] | > 10 | > 50 | 
CC(C)(C)OC(=O)NC1CCN(C(=O)c2ccc(-n3cc(C(F)(F)F)nc3-c3ccc(-c4ccc(C(F)(F)F)cc4)cc3)c(F)c2)C1 (stereo not shown) [Compound 182] | 5.9 | 18 | 
Oc1ccccc1CN1CCC(Nc2ccc(-n3nc(C(F)(F)F)cc3-c3ccc(-c4ccc(C(F)(F)F)cc4)cc3)cc2)C1 (stereo not shown) [Compound 91] |  |  | IC50 [1, 4]: 1.4 µM; MIC50 [2]: 56.3 µM (≈ 35.1 µg/mL); IC50 [3]: 2.4 µM; CC50 (THP-1 macrophages; [5]): 53.4 µM; CC50 (THP-1 macrophages; [6]): > 50 µM
FC(F)(F)c1cc(C2CCCCC2)n(-c2ccc(NC3CNC3)cc2)n1 [Compound 394] | 5.5 | 30.9 | 

SMILES | IC50 [1, 7] [µM] | CC50 (THP-1 macrophages; [8]) [µM] | also measured
CCCCCC(=O)NC1CCN(c2ccc(-n3nc(C(F)(F)F)cc3-c3ccc(-c4ccc(C(F)(F)F)cc4)cc3)cc2)C1 (stereo not shown) [Compound 63] | > 10 | > 50 | 
Nc1ccc(-n2cc(C(F)(F)F)nc2-c2ccc(Oc3ccccc3)cc2)cc1 [Compound 221] | > 10 | > 50 | 
CC(C)(C)OC(=O)N[C@@H]1CCN(c2ccc(-n3nc(C(F)(F)F)cc3-c3ccc(-c4ccc(C(F)(F)F)cc4)cc3)cc2)C1 [Compound 127] | > 10 | > 50 | 
CC(=O)NCCOCCN1CCC(Oc2ccc(-n3nc(C(F)(F)F)cc3C3CCCCC3)cc2)CC1 [Compound 427] | 6.1 | 29.5 | 
FC(F)(F)c1cc(C2CCCCC2)n(-c2ccc(NC3CCNCC3)cc2)n1 [Compound 339] | 1.7 | 18.2 | 
NCCCN1CCC(Oc2ccc(-n3nc(C(F)(F)F)cc3C3CCCCC3)cc2)CC1 [Compound 425] | 2.2 | 5.5 | 
FC(F)(F)c1cc(C2CCCCC2)n(-c2ccc(NC3CCN(Cc4ccccc4)CC3)cc2)n1 [Compound 321] | 5.1 | 23.9 | 
NC1CN(c2ccc(-n3nc(C(F)(F)F)cc3-c3ccc(-c4ccc(C(F)(F)F)cc4)cc3)cc2)C1 [Compound 172] | > 10 | > 50 | 
CC(C)(C)c1ccc(-c2nc(C(F)(F)F)cn2-c2ccc(NC(=O)CN)cc2)cc1 [Compound 157] | > 10 | 27.6 | 
FC(F)(F)c1ccc(-c2ccc(-c3cc(C(F)(F)F)nn3-c3ccc(NC4CCN(Cc5ccc(Cl)c(C(F)(F)F)c5)C4)cc3)cc2)cc1 (stereo not shown) [Compound 126] | > 10 | > 50 | 
CS(=O)(=O)c1ccc(-n2nc(C(F)(F)F)cc2-c2ccc(-c3ccc(C(F)(F)F)cc3)cc2)cc1 [Compound 179] | > 10 | 45 | 
FC(F)(F)c1cc(C2CC2)n(-c2ccc(NC3CCNC3)cc2)n1 (stereo not shown) [Compound 272] | 5.6 | 17.2 | 
NCC(=O)Nc1ccc(-n2cc(C(F)(F)F)nc2-c2ccc(C(F)(F)F)cc2)cc1 [Compound 409] | 8.8 | 35.2 | 
Oc1ccc(CNC2CCN(c3ccc(-n4nc(C(F)(F)F)cc4C4CCCCC4)cc3)C2)cc1 (stereo not shown) [Compound 362] | 2.2 | 20 | 
O=C(c1ccc(-n2cc(C(F)(F)F)nc2-c2ccc(-c3ccc(C(F)(F)F)cc3)cc2)c(F)c1)N1CCC(NCc2cccc(F)c2)C1 (stereo not shown) [Compound 178] | > 10 | > 50 | 
FC(F)(F)Oc1ccc(-n2cc(C(F)(F)F)nc2-c2ccc(-c3ccccc3)cc2)cc1 [Compound 183] | > 10 | > 50 | 
COc1ccc(-c2cc(C(F)(F)F)nn2-c2ccc(Br)cc2)cc1OC [Compound 251] | > 10 | > 50 | 
FC(F)(F)c1ccc(-c2cnnn2-c2ccc(Br)cc2)cc1 [Compound 131] | > 10 | 37.2 | 
NC1CCN(c2ccc(-n3nc(C(F)(F)F)cc3-c3ccncc3)cc2)C1 (stereo not shown) [Compound 168] | 10 | > 50 | 
Fc1cccc(CN2CCC(Nc3ccc(-n4cc(C(F)(F)F)nc4-c4ccc(-c5ccc(C(F)(F)F)cc5)cc4)cc3)C2)c1 (stereo not shown) [Compound 243] | > 10 | > 50 | 
CC(=O)NCCCCCN1CCC(Oc2ccc(-n3nc(C(F)(F)F)cc3C3CCCCC3)cc2)CC1 [Compound 431] | 4.8 | 22.4 | 
CC(C)(C)c1nc(C(F)(F)F)cn1-c1ccc(NC2CCNC2)cc1 (stereo not shown) [Compound 330] | 6.2 | > 50 | 
FC(F)(F)c1ccc(-c2ccc(-c3cc(C(F)(F)F)nn3-c3ccc(NC4CN(Cc5ccccc5)C4)cc3)cc2)cc1 [Compound 113] | > 10 | 19 | 
